In brackets after ≈: the same amount, converted by molar mass.
Experiments:
Enterococcus spp. = assay: minimum inhibitory concentration (MIC)
Procedure: (§1)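 Broth microdilution MIC (Sensititre BOPO7F bovine plate, CLSI methods) of 19 antimicrobials against field isolates of P. multocida, M. haemolytica, H. somni (deep nasopharyngeal swabs) and E. coli, Enterococcus spp. (rectal swabs) from weaned dairy heifers. Incubation 16-24 h at 35 C. MIC is the lowest concentration preventing visible growth. Values with <= or > lie at the tested range limits. Trimethoprim-sulfamethoxazole is given as the trimethoprim component of a 1:19 mixture.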

Mannheimia haemolytica = assay: minimum inhibitory concentration (MIC)
Procedure: as §1

C=C[C@]1(C)C[C@@H](OC(=O)CSCCN(CC)CC)[C@]2(C)[C@H](C)CC[C@]3(CCC(=O)[C@H]32)[C@@H](C)[C@@H]1O [Tiamulin]
minimum inhibitory concentration [µg/mL]
Conditions	Enterococcus spp.	Mannheimia haemolytica
isolate (source animal id): 2	1 (≈ 2.03 µM)	–
isolate (source animal id): 8	–	8 (≈ 16.2 µM)
isolate (source animal id): 13	–	8 (≈ 16.2 µM)
isolate (source animal id): 18	–	8 (≈ 16.2 µM)
isolate (source animal id): 21	–	8 (≈ 16.2 µM)
isolate (source animal id): 25	–	32 (≈ 64.8 µM)
isolate (source animal id): 27	–	16 (≈ 32.4 µM)
isolate (source animal id): 28	–	32 (≈ 64.8 µM)
isolate (source animal id): 30	–	8 (≈ 16.2 µM)
isolate (source animal id): 31	–	32 (≈ 64.8 µM)
isolate (source animal id): 32	–	8 (≈ 16.2 µM)
isolate (source animal id): 34	–	8 (≈ 16.2 µM)
isolate (source animal id): 35	> 32	–
isolate (source animal id): 36	–	32 (≈ 64.8 µM)
isolate (source animal id): 37	–	16 (≈ 32.4 µM)
isolate (source animal id): 40	–	8 (≈ 16.2 µM)
isolate (source animal id): 41	–	8 (≈ 16.2 µM)
isolate (source animal id): 42	> 32	–
isolate (source animal id): 43	–	8 (≈ 16.2 µM)
isolate (source animal id): 44	> 32	–
isolate (source animal id): 46	–	32 (≈ 64.8 µM)
isolate (source animal id): 49	–	16 (≈ 32.4 µM)
isolate (source animal id): 50	–	32 (≈ 64.8 µM)
isolate (source animal id): 51	–	8 (≈ 16.2 µM)
isolate (source animal id): 52	–	8 (≈ 16.2 µM)
isolate (source animal id): 53	–	8 (≈ 16.2 µM)
isolate (source animal id): 55	–	8 (≈ 16.2 µM)
isolate (source animal id): 56	–	8 (≈ 16.2 µM)
isolate (source animal id): 57	–	8 (≈ 16.2 µM)
isolate (source animal id): 79	> 32	–
isolate (source animal id): 88	2 (≈ 4.05 µM)	–
isolate (source animal id): 91	2 (≈ 4.05 µM)	–
isolate (source animal id): 92	> 32	–
isolate (source animal id): 100	–	16 (≈ 32.4 µM)
isolate (source animal id): 103	–	32 (≈ 64.8 µM)
isolate (source animal id): 107	–	16 (≈ 32.4 µM)
isolate (source animal id): 108	–	16 (≈ 32.4 µM)
isolate (source animal id): 111	2 (≈ 4.05 µM)	–
isolate (source animal id): 112	–	16 (≈ 32.4 µM)
isolate (source animal id): 113	–	8 (≈ 16.2 µM)
isolate (source animal id): 121	–	32 (≈ 64.8 µM)
isolate (source animal id): 122	> 32	16 (≈ 32.4 µM)
isolate (source animal id): 123	> 32	8 (≈ 16.2 µM)
isolate (source animal id): 126	–	32 (≈ 64.8 µM)
isolate (source animal id): 133	≤ 0.5	8 (≈ 16.2 µM)
isolate (source animal id): 135	–	8 (≈ 16.2 µM)
isolate (source animal id): 138	–	32 (≈ 64.8 µM)
isolate (source animal id): 141	–	8 (≈ 16.2 µM)
isolate (source animal id): 142	–	32 (≈ 64.8 µM)
isolate (source animal id): 145	–	32 (≈ 64.8 µM)
isolate (source animal id): 149	–	8 (≈ 16.2 µM)
isolate (source animal id): 151	–	16 (≈ 32.4 µM)
isolate (source animal id): 152	–	32 (≈ 64.8 µM)
isolate (source animal id): 154	–	16 (≈ 32.4 µM)
isolate (source animal id): 158	> 32	–
isolate (source animal id): 159	–	32 (≈ 64.8 µM)
isolate (source animal id): 162	–	16 (≈ 32.4 µM)
isolate (source animal id): 168	1 (≈ 2.03 µM)	–
isolate (source animal id): 169	1 (≈ 2.03 µM)	–
isolate (source animal id): 170	–	> 32
isolate (source animal id): 171	> 32	16 (≈ 32.4 µM)
isolate (source animal id): 172	–	32 (≈ 64.8 µM)
isolate (source animal id): 173	–	> 32
isolate (source animal id): 175	> 32	–
isolate (source animal id): 177	> 32	–
isolate (source animal id): 179	–	16 (≈ 32.4 µM)
isolate (source animal id): 180	–	16 (≈ 32.4 µM)
isolate (source animal id): 181	1 (≈ 2.03 µM)	–
isolate (source animal id): 182	1 (≈ 2.03 µM)	–
isolate (source animal id): 183	> 32	8 (≈ 16.2 µM)
isolate (source animal id): 186	–	8 (≈ 16.2 µM)
isolate (source animal id): 187	1 (≈ 2.03 µM)	16 (≈ 32.4 µM)
isolate (source animal id): 188	–	8 (≈ 16.2 µM)
isolate (source animal id): 190	1 (≈ 2.03 µM)	16 (≈ 32.4 µM)
isolate (source animal id): 191	–	> 32
isolate (source animal id): 192	–	16 (≈ 32.4 µM)
isolate (source animal id): 194	> 32	–
isolate (source animal id): 195	1 (≈ 2.03 µM)	–
isolate (source animal id): 197	8 (≈ 16.2 µM)	–
isolate (source animal id): 201	–	> 32
isolate (source animal id): 202	–	> 32
isolate (source animal id): 209	–	> 32
isolate (source animal id): 211	≤ 0.5	32 (≈ 64.8 µM)
isolate (source animal id): 214	16 (≈ 32.4 µM)	–
isolate (source animal id): 220	–	32 (≈ 64.8 µM)
isolate (source animal id): 221	–	> 32
isolate (source animal id): 222	> 32	–
isolate (source animal id): 223	> 32	> 32
isolate (source animal id): 228	≤ 0.5	–
isolate (source animal id): 230	≤ 0.5	–
isolate (source animal id): 233	–	32 (≈ 64.8 µM)
isolate (source animal id): 235	≤ 0.5	–
isolate (source animal id): 236	> 32	–
isolate (source animal id): 237	–	32 (≈ 64.8 µM)
isolate (source animal id): 239	2 (≈ 4.05 µM)	–
isolate (source animal id): 241	≤ 0.5	> 32
isolate (source animal id): 244	> 32	–
isolate (source animal id): 246	> 32	–
isolate (source animal id): 247	≤ 0.5	–
isolate (source animal id): 250	> 32	–
isolate (source animal id): 252	> 32	32 (≈ 64.8 µM)
isolate (source animal id): 253	–	16 (≈ 32.4 µM)
isolate (source animal id): 259	–	16 (≈ 32.4 µM)
isolate (source animal id): 260	–	32 (≈ 64.8 µM)
isolate (source animal id): 262	–	32 (≈ 64.8 µM)
isolate (source animal id): 268	1 (≈ 2.03 µM)	–
isolate (source animal id): 282	> 32	32 (≈ 64.8 µM)
isolate (source animal id): 285	> 32	–
isolate (source animal id): 287	–	32 (≈ 64.8 µM)
isolate (source animal id): 288	–	8 (≈ 16.2 µM)
isolate (source animal id): 289	> 32	–
isolate (source animal id): 290	> 32	–
isolate (source animal id): 291	–	16 (≈ 32.4 µM)
isolate (source animal id): 293	–	32 (≈ 64.8 µM)
isolate (source animal id): 296	> 32	–
isolate (source animal id): 298	≤ 0.5	16 (≈ 32.4 µM)
isolate (source animal id): 299	–	16 (≈ 32.4 µM)
isolate (source animal id): 300	–	8 (≈ 16.2 µM)
isolate (source animal id): 301	32 (≈ 64.8 µM)	–
isolate (source animal id): 302	–	16 (≈ 32.4 µM)
isolate (source animal id): 304	–	16 (≈ 32.4 µM)
isolate (source animal id): 306	–	8 (≈ 16.2 µM)
isolate (source animal id): 308	–	8 (≈ 16.2 µM)
isolate (source animal id): 309	–	8 (≈ 16.2 µM)
isolate (source animal id): 310	> 32	–
isolate (source animal id): 313	–	32 (≈ 64.8 µM)
isolate (source animal id): 318	–	16 (≈ 32.4 µM)
isolate (source animal id): 320	> 32	16 (≈ 32.4 µM)
isolate (source animal id): 321	–	32 (≈ 64.8 µM)
isolate (source animal id): 323	–	16 (≈ 32.4 µM)
isolate (source animal id): 324	–	32 (≈ 64.8 µM)
isolate (source animal id): 326	–	> 32
isolate (source animal id): 328	–	32 (≈ 64.8 µM)
isolate (source animal id): 329	–	32 (≈ 64.8 µM)
isolate (source animal id): 331	> 32	–
isolate (source animal id): 333	> 32	32 (≈ 64.8 µM)
isolate (source animal id): 335	–	16 (≈ 32.4 µM)
isolate (source animal id): 338	–	32 (≈ 64.8 µM)
isolate (source animal id): 341	> 32	–

Reference: the supplement of paper PMC8612539
